# Assay results taken from patent US9133195B2, “Quaternary ammonium salt compounds of spirocyclopiperazines, preparation methods and uses thereof” (Peking University, priority 2006, dated 2015).
# Read-outs that look alike come from different tables or passages of the source.
# How the values were obtained:
# mice [1] = assay: Function of motion coordination (rota-rod); assay type: in vivo; details: for Time of falling down from rota-rod: before treatment
# Method: (§1) All the following tests were carried out by using compound LXM-10 according to the routine methods.
# The effect of muscle-relaxed effect on the analgesic effect of LXM-10 was also excluded.
# Kunming mice [2] = assay: Acetic acid-induced writhing test; assay type: in vivo; details: Mus musculus, sc; 31.0 umol/kg s.c.; acetic acid i.p. after 30 min; writhing counted for 10 min
# Method: Kunming mice, male and female in half, were randomly divided into groups with 8 mice in each group. The following groups were established: the normal saline (NS) control group, in which normal saline was administered by subcutaneous injection (s.c.); the test groups, in which 31.0 umol/kg quaternary ammonium salts compounds of piperazines of the present invention was administered by s.c. All drugs were dissolved in normal saline before use. The drug was injected at the dose of 0.1 ml/10 g. After 30 min, 0.2 ml of 0.6% acetic acid was injected intraperitoneally for each mouse. After 2˜3 min, the writhing reactions such as abdominal constriction, stretch of body and hind limbs, and hip raise occurred. Five minutes after acetic acid injection, the numbers of writhing was counted for 10 min. The percentage of inhibition was determined by using the following formula (1): Inhibition %=[(The numbers of writhing of control group−the numbers of writhing of drag injection group)/the numbers of writhing of control group]×100% (1) 2 Experimental Results
# This experiment was carried out according to that of Example 36.
# ICR mice = assay: Formalin test; assay type: in vivo; details: 0.5 h after s.c., dose not stated
# Method: Sixty ICR mice, male and female in half, were divided into six groups with 10 mice in each group. The following groups were established: the normal saline (NS) control group, in which normal saline was administered by s.c.; the aspirin control group, in which aspirin was administered by i.g. at the dose of 300 mg/kg; the morphine control, group, in which morphine was administered (s.c.) at the dose of 10.0 mg/kg; and compound LXM-10 groups, in which compound LXM-10 were administered (s.c.) at the dose of 0.75, 1.5, 3.0 and 6.0 mg/kg. All drugs were dissolved in normal saline before use. The drugs injected at the dose of 0.1 ml/10 g. 30 min after administration, animals were administered 20 ul of 2.5% formalin solution on the right front paws. The licking times were recorded immediately in the duration of 0˜5 minutes as phase I reaction; After 20 minutes, the licking times were recorded in the duration of 20˜25 minutes as phase II reaction. The percentage of pain inhibition (%) was determined by using the following formula (5): Pain inhibition %=[(The licking time of normal saline control group−the licking time of drug injection group)/the licking time of normal saline control group]×100% (5) 2. Experimental Results
# Acute toxicity test = details: in vivo, sc
# Method: as §1
# mice [3] = assay: Addiction test (tail-erected response); assay type: in vivo; details: doses of 6.0, 12.0, 24.0 or 445.0 mg/kg
# Method: as §1
# They are quiet and normal.
# Kunming mice [4] = assay: Acetic acid-induced writhing test; assay type: in vivo; details: 0.5 h after s.c. administration
# Body temperature in mice = assay type: in vivo; details: for Rectal temperature: before treatment
# Method: as §1
# mice [5] = assay: Spontaneous motion in mice; assay type: in vivo; details: for Numbers of movement: before treatment
# Method: as §1
# mice [6] = assay: Hot-plate test; assay type: in vivo; details: for pain threshold elevated rate (PTE %): at 2.0 h, 55° C. hot-plate; for ED50: Mus musculus, sc
# Method: The temperature of the hot-plate was adjusted to 55° C. With licking hind paws and jumping as observation index, the time from placing of the animal on the hot plate to observation the above reactions was recorded as latency time, Latency time was measured for three times and calculated their mean value as Basal threshold or Baseline latency (BL), Mice with latency time of less than 5 s or more than 10 s were eliminated from the study. The remaining mice were divided into 8 groups, and 10 mice in each group. The following groups were established: the normal saline control group (NS), in which normal saline was administered (s.c.); the morphine control group (Mor), in which morphine was administered (s.c.) at the dose of 10.0 mg/kg; and compound LXM-10 groups, in which compound LXM-10 were administered (s.c.) at the dose of 0.75, 1.5, 3.0, 6.0, 12.0 and 24.0 mg/kg. All drugs were dissolved in normal saline before use. The drugs injected at the dose of 0.1 ml/10 g. The latency times were measured at 1.0, 1.5, 2.0, and 3.0 h after administering LXM-10. The cut-off time was set at 30 s to avoid skin scald. The percentage of pain threshold elevated rate (PTE %) was determined by using the following formula (2): PTE %=(The latency time of drug injection group−the latency time of control group at the corresponding time point)/the latency time of control group at the corresponding time point×100% (2)
# To judge whether LXM-10 was effective as analgesic using this criterion: at the peak time point of this compound, the latency times of each compound LXM-10 group was greater than the mean latency time of normal saline control group at the corresponding time point plus three times of standard deviation. The effective percentage of each group was calculated made data conversion, then calculated the analgesic ED50 and 95% confidence interval (CI) in accordance with the formulae (3) and (4) using General Method for Calculating.
# Wherein, Xm represents the logarithm value of the largest dose, i refers to group interval, ΣP refers to the sum of each group's efficiency, ΣP^2 represents the square sum of each group's efficiency, n refers to numbers of experimental groups.
smiles,measurement,setting,value
"CC1C[N+]2(CCN(CCc3ccccc3)CC2)CC(C)O1 (stereo not drawn) [LXM-10, 2,4-dimethyl-9-β-phenylethyl-3-oxo-6,9-diazaspiro[5.5]undecane chloride]",Time of falling down from rota-rod after treatment,"mice [1]; 6.0 mg/kg, 0.5 h",106.5 ± 8.88 s
same,Time of falling down from rota-rod after treatment,"mice [1]; 6.0 mg/kg, 2.0 h",110.0 ± 5.17 s
same,Time of falling down from rota-rod after treatment,"mice [1]; 6.0 mg/kg, 3.5 h",116.2 ± 3.75 s
same,Time of falling down from rota-rod,mice [1]; 6.0 mg/kg,96.7 ± 9.17 s
same,Time of falling down from rota-rod after treatment,"mice [1]; 12.0 mg/kg, 0.5 h",109.6 ± 10.3 s
same,Time of falling down from rota-rod after treatment,"mice [1]; 12.0 mg/kg, 2.0 h",109.3 ± 8.15 s
same,Time of falling down from rota-rod after treatment,"mice [1]; 12.0 mg/kg, 3.5 h",119.6 ± 0.38 s
same,Time of falling down from rota-rod,mice [1]; 12.0 mg/kg,96.6 ± 8.93 s
same,Time of falling down from rota-rod after treatment,"mice [1]; 24.0 mg/kg, 0.5 h",112.7 ± 5.18 s
same,Time of falling down from rota-rod after treatment,"mice [1]; 24.0 mg/kg, 2.0 h",117.5 ± 2.50 s
same,Time of falling down from rota-rod after treatment,"mice [1]; 24.0 mg/kg, 3.5 h",119.0 ± 1.00 s
same,Time of falling down from rota-rod,mice [1]; 24.0 mg/kg,101.2 ± 9.15 s
same,effect on function of motion coordination,"mice [1]; 6.0, 12.0, 24.0 mg/kg",did not significantly affect
same,inhibition in vivo at 31 µmol/kg,Kunming mice [2],65%
same,"percentage of pain inhibition, Phase II",ICR mice; first of three values,67.0%
same,"percentage of pain inhibition, Phase II",ICR mice; second of three values,69.6%
same,"percentage of pain inhibition, Phase II",ICR mice; third of three values,50.0%
same,LD50,Acute toxicity test; read-out: LD50,514 mg/kg
same,LD50,Acute toxicity test; read-out: LD50 95% confidence interval,495 to 531 mg/kg
same,tail-erected response,mice [3],no tail-erected response
same,percentage of pain inhibition,Kunming mice [4]; 1.5 mg/kg,63.4%
same,percentage of pain inhibition,Kunming mice [4]; 3.0 mg/kg,78.8%
same,percentage of pain inhibition,Kunming mice [4]; 6.0 mg/kg,79.2%
same,percentage of pain inhibition,Kunming mice [4]; 12.0 mg/kg,55.6%
same,Rectal temperature after treatment,"Body temperature in mice; 6.0 mg/kg, 0.5 h",37.3 ± 0.35 °C
same,Rectal temperature after treatment,"Body temperature in mice; 6.0 mg/kg, 2.0 h",37.3 ± 0.28 °C
same,Rectal temperature after treatment,"Body temperature in mice; 6.0 mg/kg, 3.5 h",37.5 ± 0.29 °C
same,Rectal temperature,Body temperature in mice; 6.0 mg/kg,37.7 ± 0.34 °C
same,Rectal temperature after treatment,"Body temperature in mice; 12.0 mg/kg, 0.5 h",37.0 ± 0.26 °C
same,Rectal temperature after treatment,"Body temperature in mice; 12.0 mg/kg, 2.0 h",37.1 ± 0.24 °C
same,Rectal temperature after treatment,"Body temperature in mice; 12.0 mg/kg, 3.5 h",37.1 ± 0.20 °C
same,Rectal temperature,Body temperature in mice; 12.0 mg/kg,37.1 ± 0.09 °C
same,Rectal temperature after treatment,"Body temperature in mice; 24.0 mg/kg, 0.5 h",37.5 ± 0.21 °C
same,Rectal temperature after treatment,"Body temperature in mice; 24.0 mg/kg, 2.0 h",37.0 ± 0.19 °C
same,Rectal temperature after treatment,"Body temperature in mice; 24.0 mg/kg, 3.5 h",37.3 ± 0.16 °C
same,Rectal temperature,Body temperature in mice; 24.0 mg/kg,37.0 ± 0.18 °C
same,effect on body temperature,"Body temperature in mice; 6.0, 12.0, 24.0 mg/kg",did not affect
same,Numbers of movement after treatment,"mice [5]; 6.0 mg/kg, 0.5 h",46.6 ± 2.63
same,Numbers of movement after treatment,"mice [5]; 6.0 mg/kg, 2.0 h",42.3 ± 3.38
same,Numbers of movement after treatment,"mice [5]; 6.0 mg/kg, 3.5 h",48.0 ± 5.00
same,Numbers of movement,mice [5]; 6.0 mg/kg,46.8 ± 1.96
same,Numbers of movement after treatment,"mice [5]; 12.0 mg/kg, 0.5 h",48.0 ± 6.21
same,Numbers of movement after treatment,"mice [5]; 12.0 mg/kg, 2.0 h",48.1 ± 6.14
same,Numbers of movement after treatment,"mice [5]; 12.0 mg/kg, 3.5 h",48.0 ± 7.85
same,Numbers of movement,mice [5]; 12.0 mg/kg,47.7 ± 2.55
same,Numbers of movement after treatment,"mice [5]; 24.0 mg/kg, 0.5 h",43.5 ± 4.21
same,Numbers of movement after treatment,"mice [5]; 24.0 mg/kg, 2.0 h",45.5 ± 6.05
same,Numbers of movement after treatment,"mice [5]; 24.0 mg/kg, 3.5 h",46.6 ± 3.69
same,Numbers of movement,mice [5]; 24.0 mg/kg,50.2 ± 2.31
same,effect on spontaneous motion,"mice [5]; 6.0, 12.0, 24.0 mg/kg",did not significantly affect
same,pain threshold elevated rate (PTE %),mice [6]; 1.5 mg/kg s.c.,47.5%
same,pain threshold elevated rate (PTE %),mice [6]; 3.0 mg/kg s.c.,54.8%
same,pain threshold elevated rate (PTE %),mice [6]; 6.0 mg/kg s.c.,79.2%
same,pain threshold elevated rate (PTE %),mice [6]; 12.0 mg/kg s.c.,126.8%
same,ED50,"mice [6]; hot-plate, at peak time, read-out: analgesic ED50",3.2 mg/kg
same,ED50,"mice [6]; hot-plate, read-out: ED50 95% confidence interval",1.8 to 5.4 mg/kg
same,analgesic effect persisted to,"mice [6]; s.c., hot-plate",3.0 h
same,onset time of analgesic effect,"mice [6]; s.c., hot-plate",1.0 h
same,peak time of analgesic effect,"mice [6]; s.c., hot-plate",2.0 h
